Experimental data from patent publication EP0431799A2, “Use of nucleoside derivatives as cytotoxic agents” (THE WELLCOME FOUNDATION LIMITED, priority 1989, dated 1991).

Test system: P388 tumor cells
Set-up: species or system Male CD2-F₁ mice
Details: mouse, in vivo, po
From the text: The tests employed for evaluating the antitumour activity of compounds of the present invention are essentially those used in the Tumor Panel of the Developmental Therapeutics Program, Divison of Cancer Treatment National Cancer Institute, A Goldin, et al., Methods in Cancer Research, Vol. XVI, p. 165, Academic Press (1979). Some modifications in dose level and schedule have been made to increase the testing efficiency.
Male CD2-F₁ mice, weighing 20 ± 3 g, were used for this test. Control and test animals were injected intraperitioneally with a suspension of ∼10⁶ viable P388 tumor cells on day 0. In each test, several dose levels which bracketed the LD₂₀ of the compound were evaluated; each dose level group contained six animals. The test compounds were prepared either in physiologic saline containing 0.05% Tween 80 or distilled water containing 5% dextrose and were administered (a) orally, (b) intravenously or (c) intraperitoneally according to the indicated schedule relative to the day of tumour implant. Doses were on a mg/kg basis according to individual animals' body weights. The day of death for each animal was recorded, the median identified for each group and the percent increase in life span (%ILS) was calculated from the ratios of median survival time for treated to control groups. The criterion for activity is % ILS greater than or equal to 20%.

Structure (SMILES): Nc1ncnc2c1ncn2[C@@H]1CC[C@@H](O)[C@H]1O (racemic) [(±)-(1R*,2S*,3R*)-3-(6-amino-9H-purin-9-yl)-1,2-cyclopentanediol]
- Toxic at:: 35 mg/kg
